# Laboratory results as given in US8211646B1, “Methods of treating ovarian cancer by modulating SnoN” (University of South Florida, priority 2008, dated 2012).
# Legend:
# Format in all cases: cell-based
# ovarian cancer cells = assay: Cell titer glo cell viability assay
# Description: Measurement of Intracellular ATP Levels. T80, HEY, and SKOV3 ovarian cells were seeded in triplicate for each treatment group at 5000 cells per well into each well of a 96 well white-opaque plate. Following overnight cell attachment, cells were treated for 18 hours with appropriate doses of arsenic trioxide or geldanamycin (0 mM, 2 μM, 5 μM, 10 μM, 25 μM, and 50 μM). Following termination of the cell treatments, the media was removed from the wells and replaced with 100 μl of phosphate-buffered saline (PBS). The plate was equilibrated to room temperature, 100 μl of Cell-Titer Glo reagent (Promega, Madison, Wis.) was added, and mixed on a plate shaker for 2 minutes. The plate was further incubated for 10 minutes at room temperature prior to reading with a Biotek luminescence plate reader to obtain relative light unit (RLU) measurements. Empty wells (containing no cells) were utilized as a correction for background luminescence. All experiments were performed in triplicate.
# glutathione (GSH) = assay: GSH-Glo glutathione assay; conditions: T80, HEY, SKOV3; 18 hours
# Description: Glutathione (GSH) was measured using the GSH Glo kit (Promega). Briefly, T80, HEY, and SKOV3 ovarian cells were plated at 5000 cells/well in opaque white 96 well plates. Following overnight attachment, cells were treated with As2O3 for 18 hours. Following cell treatments, the media was discarded and fresh PBS was added for washout followed by the addition of 100 μl of GSH-Glo reagent. Following a 2 minute shake, the cells were incubated at room temperature for 30 minutes followed by the addition of reconstituted luciferase detection reagent. The cells were incubated for a further 15 minutes at room temperature and the plate was read on a Biotek luminescence plate reader. All measurements were performed in triplicate.
# T80, HEY and SKOV3 cells = assay: Annexin V-propidium iodide apoptosis assay; conditions: As2O3 treatment
# Description: For assessment of apoptosis, the Annexin V-propidium iodide staining kit (Calbiochem, San Diego, Calif.) was used according to the manufacturer's protocol. Briefly, cells were treated with As2O3 for 24 hours at which time both the floating and adherent cells (removed by trypsinization) were collected. Cells were resuspended in PBS followed by the addition of annexin V-FITC and propidium iodide. The samples were then analyzed by flow cytometry at the MD Anderson Cancer Center FACS Core Facility. The FITC and the propidium iodide signals were detected at 518 nm with FL1 and at 620 nm with FL2, respectively.
# [1] = system: EVI1 forms (MDS1/EVI1, EVI1, EVI1^Del190-515)
# Description: (§1) Proteins were resolved on an 8%, 12%, or 15% SDS-PAGE gel (as appropriate) and electrophoretically transferred to polyvinyldifluoride (PVDF) membranes. After blocking with 5% (w/v) milk in TBST (Tris-Buffered Saline containing 0.1% Tween-20) for one hour at room temperature, membranes were incubated with primary antibodies (at appropriate dilution) overnight at 4° C., followed by extensive washing and incubation for 1 hour with the appropriate horseradish peroxidase-conjugated secondary antibodies (BioRad, Hercules, Calif.). Blots were washed extensively. A rabbit polyclonal EVI1 antibody was obtained (1:3000 dilution, St. Jude's Children's Hospital, Memphis, Tenn.). SnoN rabbit polyclonal (1:1000 dilution), PML, and p21 SMURF2 rabbit polyclonal (1:500 dilution), MRP1 mouse monoclonal (1:500 dilution) and GAPDH mouse monoclonal (1:250 dilution) antibodies were obtained from Santa Cruz Biotechnology (Santa Cruz, Calif.). TGFβRII rabbit polyclonal (1:1000 dilution) antibody was obtained from Strategic Diagnostics (Newark, Del.). Smad2/3 rabbit polyclonal (1:1000 dilution), Beclin-1 rabbit polyclonal (1:1000 dilution), AKT rabbit polyclonal (1:1000 dilution), TAK1 rabbit polyclonal (1:1000 dilution), PARP rabbit polyclonal (1:1000 dilution), Beclin-1 rabbit polyclonal (1:1000 dilution), caspase-3 rabbit polyclonal (1:1000) which detects the pro-caspase form, and ATG5 rabbit polyclonal (1:1000 dilution), LC3-II rabbit polyclonal (1:1000 dilution) antibodies were obtained from Cell Signaling Technology (Danvers, Mass.). The HSP27 mouse monoclonal (1:1000 dilution) antibody was obtained from Stressgen (Ann Arbor, Mich.). Blots were developed using chemiluminescence substrates (Amersham Piscataway, N.J. or BioRad, Hercules, Calif.). Monoclonal PAI-1 antibody was obtained from BD Pharmingen. PSMAD2, total SMAD2/3, p-ERK, p-AKT, and total AKT antibodies were obtained from Cell Signaling Technology. A monoclonal antibody against Arkadia was obtained from Abnova (Taiwan).
# (§2) Densitometric analysis was performed using the HP Scanjet 5590 and the Image J program (Image Processing and Analysis in Java, NIH Image Software). Bands were selected and the intensity values were normalized to those for GAPDH. The values are presented as fold-changes relative to control siRNA treated cells.
# (§3) The clinical inhibitors As2O3, geldanamycin (17-AAG) (dissolved in dimethylsulfoxide [DMSO]), and MG132 (dissolved in DMSO) were obtained from Sigma-Aldrich (St. Louis, Mo.), Fisher Scientific (Pittsburgh, Pa.), and Alexis Biochemicals (Farmingdale, N.Y.), respectively. N-acetyl-L-cysteine (NAC; dissolved in media) and Bortezomib (PS-341; dissolved in DMSO) were obtained from Fisher Scientific. 3-Methyladenine (3-MA; dissolved in media) was obtained from MP Biomedicals (Solon, Ohio). Tiron (4,5-Dihydroxy-1,3-benzenedisulfonic acid, dissolved in media) was obtained from Fisher Scientific. zVAD-fmk (dissolved in DMSO) and bafilomycin A (dissolved in DMSO) was obtained from Axxora LLC (San Diego, Calif.). Bovine catalase was obtained from Sigma-Aldrich. HBED and Mn TBAP was obtained from ENZO Life Sciences (Farmingdale, N.Y.). Ovarian cells were plated in 6-well plates at 250,000 cells per well and grown in complete medium. The following day, the cells were treated with 5 μM MG132, As2O3 (between 2-50 μM), 17-AAG (between 2-50 μM), NAC (Fisher Scientific, between 25 μM to 1 mM), Tiron (between 25 μM to 1 mM), 3-MA (0.1 mM to 10 mM), or zVAD-fmk (25 μM to 100 μM). For control cells, DMSO (a final concentration of <0.5%) was added to compare appropriately to drugs dissolved in DMSO. After the appropriate incubation time (6 or 18 hours), cell lysates were collected, protein quantified, and SDS-PAGE/western analysis was performed. In addition, for selected studies, RNA was isolated, quantified, and used for qPCR analysis.
# [2] = system: TAK1, SMAD2/3, TGFβRII, AKT, phospho-SMAD2; assay: Western analysis of other TGFβ signaling mediators
# Description: as §1, §2, §3
# cleaved PARP = assay: Western analysis of PARP cleavage (early apoptosis marker)
# Description: as §1, §2, §3
# [3] = HEY and OVCA429, 18 hours, increasing doses
substance,measurement,setting,value
Arsenic trioxide [As2O3],reduction of cell growth (cellular viability),"ovarian cancer cells; 25 μM, 18 hour treatment, relative to control cells",50%
same,sensitivity of cellular viability to As2O3,"ovarian cancer cells; SKOV3 (high EVI1) compared to T80 (low EVI1), 2-50 μM, 18 hours",more resistant
same,GSH levels,glutathione (GSH),markedly reduced
same,apoptotic percentage,"T80, HEY and SKOV3 cells; SKOV3 and HEY",< 20%
same,apoptotic percentage,"T80, HEY and SKOV3 cells; T80 (low expressing EVI1 cell line)",> 80%
same,EVI1 and EVI1^Del190-515 protein expression,[1]; 5 μM As2O3,reduced
same,MDS1/EVI1 protein expression,[1]; 5 μM As2O3,remained unchanged
same,protein levels of EVI1 forms,[1]; [3],markedly decreased
same,"TAK1, SMAD2/3, TGFβRII and AKT protein",[2]; [3],markedly reduced
same,"EVI1, TAK1, SMAD2/3, TGFβRII expression levels","[2]; HEY, 18 hours As2O3",Dramatic decreases
same,dose at which PARP fragmentation dramatically increased,cleaved PARP; HEY and SKOV3,50 µM
same,dose at which PARP fragmentation dramatically increased,cleaved PARP; T80,25 µM
